Experiments:
[1] = tested on: benign human skin tumors; details: through rub in
Text: (§1) The treatment is provided by rub in the medium with a tampon impregnated with it, directly in the tumor (by the skin ones), or in the accessible surface of the healthy tissue situated near by it. The rub in takes place repeatedly, with waiting for the absorption of the solution, until the tumor is saturated with formic acid in such a degree, that the blood in its blood-vessels coagulates and so that the tumor will be necrotized. […] By the benign tumor the treatment shall include mechanical irritation of its tissue too, with the purpose to stimulate the blood-circulation in it, by which the blood-vessels will be filled out and their surface will be enlarged on the account of the thickness of their walls. Such a treatment can be utilized, if necessary, by the malignant tumors too.

[2] = tested on: malign formation in the milk gland
Text: as §1
In the concrete case the treatment is applied on the spouse and respectively parent of the inventors. The women is […], with two side fibrose mastopatia. On 19 Nov. 2001 by an echographic examination has been discovered malign formation in the left breast, sector 12h, with the above mentioned dimensions and deepness, (FIG. 1 and FIG. 2). The diagnosis was confirmed through punctual biopsy. The treatment by the above-mentioned method began on 23 Nov. 2001 in the evening. […] The procedures continued three times daily in the following days.

[3] = tested on: inflammatory processes, mushroom formations, and other pathological alterations of the tissues
[4] = tested on: pathologically altered tissue; details: very weak solutions, in the range of 10%
Text: By broader studies can be composed a table for the painfulness of the reaction by the different groups of tumors and other types of tissue alteration, depending on the solution concentration, the time of influence, for example by rub in and the deepness of the alteration.
The method has been applied for diagnostic of breast cancer.

`O=CO` [formic acid, formic (methane) acid (HCOOH)] was tested. Which “elimination of benign human skin tumors” value [1] did it give?
The value was “repeatedly implemented for the elimination”.

What about the “state of the tumor tissue” value ([2]; concluded from echography, biopsy and lack of pain by rub in) of the same compound?
The value was “necrotized”.

What about the “echographic size of the flack” value ([2]; echography 11 Dec. 2001 (FIG. 5)) of the same compound?
Its value is “the flack is diminished”.

What about the “outcome of treatment of malign formation in the milk gland” value ([2]; only through rub in, formation 5.7 to 7.4 mm, about 8 mm deep) of the same compound?
Its value is “successfully implemented”.

What about the “second punction biopsy, cancer cells” value ([2]; person, rub in three times daily from 23 Nov. 2001, biopsy 01 Dec. 2001) of the same compound?
Its value is “have not been observed cancer cells”.

And the “action in inflammatory processes, mushroom formations and other tissue alterations” value ([3]; rub in, pulverizing, inhalations or other supply)?
Its value is “acts very effectively and rapidly”.

What about the “outcome in tooth grenolom” value ([3]; three cases) of the same compound?
The value was “the extraction of the teeth was prevented”.

What about the “reaction when hitting places with pathologically altered tissue” value [4] of the same compound?
Its value is “give pain reaction”.

From patent publication US20050119344A1, “Medium for radical treatment of tumors, inflammatory processes, fungal infections and other affections of the tissues, diagnostic and prophylactic and method of its implementation” (priority 2001, published 2005)
